# Measurements from patent publication US20070092907A1, “Methods of screening compound probes” (priority 2005, published 2007).
# Entries after “also recorded” stand apart in the source; their conditions may differ.
# Tests used:
# rat glioma C6 cells = test: C6 cell uptake of phosphonium cations determined by MALDI-TOF-MS; type: cell-based; details: for cell uptake / accumulation (in words): up to 90 min; for percent cell uptake: plateau at ~90 minute after incubation
# Experimental: MALDI-TOF Mass Spectrometry: MALIDI-TOF-MS experiments were performed on a Perseptive Voyager-DE RP Biospectrometry instrument (Framingham, Mass.). On the MALDI-TOF-MS target plate, 1 μL each of sample solution and 1 μL of the matrix were mixed. […] For each analysis, the laser spot randomly hit the sample to generate an averaged MALDI-TOF-MS spectrum. Three spectra were produced for each sample, and analyte to internal standard response ratios were averaged.
# C6 cells (0.5×10^6/50 μL) were incubated with 10 μL 100 μM stock phosphonium salts solution (5 μM final concentration) and 140 μL HEPES buffer from 10 to 90 min at room temperature. The cells were centrifuged (250×g) for three minutes and washed twice with cold PBS buffer at specified times. Cell pellets were then lysed with 150 μL cold spectral grade water, followed by freezing in dry ice. Right before the MALDI-TOF-MS analysis, the frozen cell solution was thawed and centrifuged at 12000×g for 5 min. An aliquot of 90 μL of cell lysate and 10 μL of 10 μM internal standard MeTPP were mixed together, and 1 μL of solution was subjected to MALDI-TOF-MS analysis. Samples collected from three independent cell lysates were prepared for each study and subjected for MALDI-TOF-MS analysis.
# Then they were diluted with C6 cell lysate (0.5×10^6 cells per 150 μL, these cells were not incubated with any phosphonium compound prior to lysis) to make various concentrations of compound and stored at 0° C. One micromolar MeTPP in 10 μL volume, which was used as internal standard, and 10 μL phosphonium cations with concentrations ranging from 0.1 μM-1.5 μM were mixed together thoroughly. Subsequently, 1 μL aliquot and 1 μL matrix αCHCA were deposited on the target plate and dried for MALDI-TOF-MS analysis. Triplicate samples were prepared and analyzed.
# C6 cells [1] = test: Mitochondrial and plasma membrane potential dependent uptake in C6 cells (CCCP, valinomycin, high K+ HEPES buffer), MALDI-TOF-MS; type: cell-based, rat; details: for decrease in uptake on depolarization of the plasma membrane (high K+ vs low K+ buffer): 90 min exposure time; for effect of CCCP on uptake: CCCP at 1 μM concentration; for nature of uptake (membrane potential dependence): C6 cells, CCCP, valinomycin, high K+ buffer
# Experimental: K^+-ionophore valinomycin was dissolved in ethanol and also diluted with low K^+ buffer. Final concentrations of ethanol and DMSO were below 0.1%. Varying concentrations of CCCP and valinomycin were added to the 0.5×10^6 cells in low K^+ HEPES buffer 30 min prior to the start of the experiment. […] The viability and the integrity of the cells after treatment with inhibitors and high K^+ buffer were examined using Trypan blue.
# C6 cells [2] = test: C6 cell uptake of 3H-TPP by scintillation counting; type: cell-based, rat; details: 5 μM, 25° C., 90 min
# Experimental: Cell Uptake of ^3H-tetraphenylphosphonium (^3H-TPP): C6 cell uptake of ^3H-TPP was also performed for direct comparison with cell uptakes of TPP and FTPP determined through MALDI-TOF-MS. Briefly, 0.5×10^6 cells were incubated with 5 μM ^3H-TPP [^3H-TPP was spiked with TPP to make a final concentration of 12.21 GBq/mmol (0.33 Ci/mmol)] from 10 to 90 min in a 200 μL HEPES buffer at room temperature. Cell lysate was prepared using the same procedure as described in the Cell Uptake Studies of Phosphonium Cations section, and the radioactivity of cell lysate was counted. Triplicate samples were obtained for all uptake studies. Data were expressed as the accumulation of the amount of probe in each cell or percent cell uptake (fmols/cell, % cell uptake). ^3H analyses were performed with a Beckman LS-6500 liquid scintillation counter with Biosafe II scintillation fluid (Research Products International, Mount prospect, Ill.). The attenuation and quenching effects resulting from the cell lysate used in this experiment were determined to be negligible, and the disintegration per minute (dpm) was obtained by correcting for background activity and efficiency (69.3% for ^3H).
compound,measurement,setting,value
"BrCCCC[P+](c1ccccc1)(c1ccccc1)c1ccccc1.[Br-] [BrTPP, (4-bromobutyl) triphenyl-phosphine bromide]",uptake compared with tetraphenylphosphonium analogs (TPP and FTPP),"rat glioma C6 cells; 5 μM, C6 cells",much lower uptake
"CCCC[P+](c1ccccc1)(c1ccccc1)c1ccccc1.[Cl-] [BuTPP, butyltriphenylphosphonium chloride]",uptake compared with tetraphenylphosphonium analogs (TPP and FTPP),"rat glioma C6 cells; 5 μM, C6 cells",much lower uptake
"O=C(O)CCCC[P+](c1ccccc1)(c1ccccc1)c1ccccc1.[Br-] [CoTPP, (4-carboxybutyl)triphenyl-phosphonium bromide]",cell uptake / accumulation (in words),"rat glioma C6 cells; 5 μM, C6 cells",either does not accumulate or accumulates minimally
same,detection of compound in cell lysate by MALDI-TOF-MS,rat glioma C6 cells; C6 cell lysate after incubation with compound,could not be identified
"Fc1ccc([P+](c2ccc(F)cc2)(c2ccc(F)cc2)c2ccc(F)cc2)cc1.[I-] [F4TPP, Tetra-4-fluorophenylphosphonium iodide]",decrease in uptake on depolarization of the plasma membrane (high K+ vs low K+ buffer),C6 cells [1]; 5 μM probe,3.0 fold
same,effect of CCCP on uptake,C6 cells [1]; 5 μM probe,can also be inhibited
same,nature of uptake (membrane potential dependence),C6 cells [1],electrogenic and driven by the plasma and mitochondrial membrane potentials
"Fc1ccc(C[P+](c2ccccc2)(c2ccccc2)c2ccccc2)cc1.[I-] [FBnTP, 4-fluorobenzyl-triphenylphosphonium iodide]",uptake compared with tetraphenylphosphonium analogs (TPP and FTPP),"rat glioma C6 cells; 5 μM, C6 cells",much lower uptake
same,decrease in uptake on depolarization of the plasma membrane (high K+ vs low K+ buffer),C6 cells [1]; 5 μM probe,1.5 fold
same,effect of CCCP on uptake,C6 cells [1]; 5 μM probe,can also be inhibited
same,nature of uptake (membrane potential dependence),C6 cells [1],electrogenic and driven by the plasma and mitochondrial membrane potentials
"Fc1ccc([P+](c2ccccc2)(c2ccccc2)c2ccccc2)cc1 [FTPP, 4-Fluorophenyltriphenyl phosphonium]",accumulation relative to MeTPP,"rat glioma C6 cells; 5 μM, C6 cell culture",8 times
same,cell uptake relative to that of TPP,"rat glioma C6 cells; 5 μM, C6 cells",over 80%
same,percent cell uptake,"rat glioma C6 cells; 5 μM, C6 cells",9.33%
same,cell uptake / accumulation (in words),"rat glioma C6 cells; 5 μM, C6 cells",good cell uptake; also recorded: higher C6 cell uptake than both F4TPP and FBnTP
same,normalized uptake in presence of valinomycin,"C6 cells [1]; 5 μM probe, 10 μM valinomycin, low K+ HEPES buffer, one hour incubation",about 72.8±3.6%
same,normalized uptake in presence of CCCP,"C6 cells [1]; 5 μM probe, 50 μM CCCP, low K+ HEPES buffer, one hour incubation",about 27.3±2.3%
same,decrease in uptake on depolarization of the plasma membrane (high K+ vs low K+ buffer),C6 cells [1]; 5 μM probe,3.5 fold
same,effect of CCCP on uptake,C6 cells [1]; 5 μM probe,significantly inhibited
same,effect of valinomycin on uptake,"C6 cells [1]; 5 μM probe, valinomycin at 1 μM concentration",significantly inhibited
same,nature of uptake (membrane potential dependence),C6 cells [1],electrogenic and driven by the plasma and mitochondrial membrane potentials
"C[P+](c1ccccc1)(c1ccccc1)c1ccccc1.[Br-] [MeTPP, methyltriphenyl phosphonium bromide, reference compound]",percent cell uptake,"rat glioma C6 cells; 5 μM, C6 cells",1.06%
"Cl.[Cl-].c1ccc([P+](Cc2ccccn2)(c2ccccc2)c2ccccc2)cc1 [PyTPP, triphenyl(2-pyridylmethyl)phosphonium chloride hydrochloride]",uptake compared with tetraphenylphosphonium analogs (TPP and FTPP),"rat glioma C6 cells; 5 μM, C6 cells",much lower uptake
"CCCC[P+](CCCC)(CCCC)CCCC.[Br-] [TBuP, tetrabutylphosphonium bromide]",decreased cellular accumulation compared to TPP,"rat glioma C6 cells; 5 μM, C6 cells",~18 fold
same,cell uptake / accumulation (in words),"rat glioma C6 cells; 5 μM, C6 cells",lower cell uptake
same,cell uptake / accumulation (in words),"rat glioma C6 cells; 5 μM, C6 cells, listed as TBuPP",very low cell accumulaiton
"[Br-].c1ccc([P+](c2ccccc2)(c2ccccc2)c2ccccc2)cc1 [TPP, tetraphenylphosphonium bromide, reference compound]",amount accumulated per cell,"rat glioma C6 cells; 5 μM, 10 mins post incubation",0.11 fmol TPP per cell
same,incubation time to maximum / steady-state uptake,"rat glioma C6 cells; 5 μM, C6 cells",60 min
same,percent cell uptake,"rat glioma C6 cells; 5 μM, C6 cells",11.44%
^3H-tetraphenylphosphonium [^3H-TPP],time course of uptake by scintillation counting compared with MALDI-TOF-MS of TPP,C6 cells [2],almost identical pattern and the same levels of uptake
